According to patent US7297714B2, “Inhibitors of cathepsin S” (IRM LLC, priority 2003, dated 2007):

Assays:
Type in all cases: biochemical
Cathepsin S = Cathepsin S (Homo sapiens, UniProt P25774); test: Cathepsin S inhibition assay (fluorogenic peptide substrate); details: Cathepsin S inhibition constant; pH5.5; read-out: Ki Cat. S
Description: “Inhibition constant”, Ki, is the dissociation constant of the enzyme-inhibitor complex, or the reciprocal of the binding affinity of the inhibitor to the enzyme. For classical inhibition the value of Ki is much greater than the enzyme concentration and the Ki can be measured by monitoring the rate of reaction for a competitive substrate at multiple inhibitor concentrations. The inhibited rates are then fit by nonlinear regression to the following equation: […]
The assumption being made for the classical inhibition described above is that the free inhibitor concentration is equal to the total inhibitor concentration. For inhibitors that have Ki's that are approximately equal to the enzyme concentration [E], the assumption that the free inhibitor concentration is equal to the total inhibitor concentration is no longer valid and an alternative equation has to be fit for determination of the apparent inhibition constant, Ki^app using described methods (Kuzmic, P., K. C. Elrod, et al., Anal Biochem 2000, 286(1), 45-50):
(§1) The optimal substrate for cathepsin S, acetyl-histidine-proline-valine-lysine-amino carbamoyl coumarin, was identified from screening a combinatorial library of fluorogenic peptide substrates (Harris, J. L., B. J. Backes, et al., Proc Natl Acad Sci U S A 2000, 97(14), 7754-9). Kinetic measurements are performed in a total reaction volume of 30 μl in 384-well microtiter plates. Cathepsin S, at a final concentration of 0.3-3 nM (active site), is incubated with the compounds at twelve varying concentrations in a buffer containing 100 mM NaAc (pH5.5), 1 mM EDTA, 100 mM NaCl, 0.01% Brij-35 for 20 minutes at room temperature. Control reactions in the absence of inhibitor are performed in replicates of 24. The reactions are initiated by adding the substrate, acetyl-histidine-proline-valine-lysine-amino carbamoyl coumarin, to a final concentration of 50 μM. The rate of substrate hydrolysis is measured by monitoring the increase in fluorescence at an excitation wavelength of 380 nm and an emission wavelength of 450 nm that results from cleavage of the aniline bond in the substrate by the enzyme. The apparent inhibition constants for the compounds are determined from the enzyme progress curves (Kuzmic, P., K. C. Elrod, et al., Anal Biochem 2000, 286(1), 45-50) and are then used to calculate the inhibition constants for competitive inhibitors.

Cathepsin K = target: T1, Cathepsin K (Homo sapiens, UniProt P43235); test: Cathepsin K inhibition assay, selectivity for cathepsin S over cathepsin K; details: ratio of cathepsin K inhibition constant to cathepsin S inhibition constant
T1 sequence (P43235 115-329): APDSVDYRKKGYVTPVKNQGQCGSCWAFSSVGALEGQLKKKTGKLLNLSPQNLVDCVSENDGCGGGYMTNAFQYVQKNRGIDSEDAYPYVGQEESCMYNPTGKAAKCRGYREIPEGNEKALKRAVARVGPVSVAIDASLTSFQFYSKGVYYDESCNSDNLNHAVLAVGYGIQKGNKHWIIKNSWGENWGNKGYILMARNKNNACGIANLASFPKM
Experimental: as §1, with “cathepsin K, acetyl-lysine-histidine-proline-lysine-amino” for “cathepsin S, acetyl-histidine-proline-valine-lysine-amino”, “Sci USA” for “Sci U S A”, “Cathepsin K,” for “Cathepsin S,”, “of 3.5” for “of 0.3-3”, “substrate, acetyl-lysine-histidine-proline-lysine-amino” for “substrate, acetyl-histidine-proline-valine-lysine-amino”, “of 40” for “of 50”
(§2) Selectivity for cathepsin S in the presence of cathepsin isozymes was determined by the ratio of the cathepsin isozyme inhibition constant of a compound of the present invention to the cathepsin S inhibition constant of the same compound. Preferred compounds of the present invention selective for cathepsin S have ratios of greater than 10. More preferred compounds of the present invention selective for cathepsin S have ratios of greater than 100. Most preferred compounds of the present invention selective for cathepsin S have ratios of greater than 1000.

Cathepsin L = Cathepsin L (Homo sapiens, UniProt P07711); test: Cathepsin L inhibition assay, selectivity for cathepsin S over cathepsin L; details: ratio of cathepsin L inhibition constant to cathepsin S inhibition constant
Experimental: The optimal substrate for cathepsin L, acetyl-histidine-lysine-phenylalanine-lysine-amino carbamoyl coumarin, was identified from screening a combinatorial library of fluorogenic peptide substrates (Harris, J. L., B. J. Backes, et al.; Proc Natl Acad Sci USA 2000, 97(14), 7754-9). Kinetic measurements are performed in a total reaction volume of 30 μl in 384-well microtiter plates. Cathepsin L, at a final concentration of 0.1 nM (active site), is incubated with the compounds at twelve varying concentrations in a buffer containing 100 mM NaAc (pH5.5), 1 mM EDTA, 100 mM NaCl, 0.01% Brij-35 for 20 minutes at room temperature. Control reactions in the absence of inhibitor are performed in replicates of 24. The reactions are initiated by adding the substrate, acetyl-histidine-lysine-phenylalanine-lysine-amino carbamoyl coumarin, to a final concentration of 20 μM. The rate of substrate hydrolysis is measured by monitoring the increase in fluorescence at an excitation wavelength of 380 nm and an emission wavelength of 450 nm that results from cleavage of the aniline bond in the substrate by the enzyme. The apparent inhibition constants for the compounds are determined from the enzyme progress curves (Kuzmic, P., K. C. Elrod, et al., Anal Biochem 2000, 286(1), 45-50) and are then used to calculate the inhibition constants for competitive inhibitors.
as §2

Cathepsin B = Cathepsin B (Homo sapiens, UniProt P07858); test: Cathepsin B inhibition assay, selectivity for cathepsin S over cathepsin B; details: ratio of cathepsin B inhibition constant to cathepsin S inhibition constant
Experimental: as §1, with “cathepsin B,” for “cathepsin S,”, “Sci US” for “Sci U S”, “Cathepsin B,” for “Cathepsin S,”, “of 1.5” for “of 0.3-3”, “of 10” for “of 50”
as §2

Sequence of Cathepsin S (P25774 115-331, species assumed): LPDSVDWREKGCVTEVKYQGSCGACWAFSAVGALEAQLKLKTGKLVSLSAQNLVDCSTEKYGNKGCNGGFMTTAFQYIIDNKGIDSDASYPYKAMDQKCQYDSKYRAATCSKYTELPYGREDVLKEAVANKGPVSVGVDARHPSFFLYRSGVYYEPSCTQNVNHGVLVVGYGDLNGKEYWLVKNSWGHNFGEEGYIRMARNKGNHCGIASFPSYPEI
Sequence of Cathepsin L (P07711 114-333, species assumed): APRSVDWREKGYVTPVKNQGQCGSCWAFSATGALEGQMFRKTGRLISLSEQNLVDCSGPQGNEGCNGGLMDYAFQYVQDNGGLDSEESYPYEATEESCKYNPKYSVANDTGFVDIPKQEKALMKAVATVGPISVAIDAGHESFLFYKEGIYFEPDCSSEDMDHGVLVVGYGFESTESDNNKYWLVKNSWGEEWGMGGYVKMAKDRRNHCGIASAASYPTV

Ki (Cathepsin S)	Selectivity for Cat. S over Cat. K (Cathepsin K)	Selectivity for Cat. S over Cat. L (Cathepsin L)	Selectivity for Cat. S over Cat. B (Cathepsin B)	Structure (SMILES)
< 100 nM	+ (+, >10)	++ (++, >100)	++ (++, >100)	O=C1C[C@H](NC(=O)[C@H](CC2CC2)NC(=O)C2CC2)C(O)O1 (stereo partly drawn) [Example 21, (3S)-(3-Cyclopropyl-(2S)-(cyclopropylcarbonylamino)-propionylamino)-4-oxo-butyric acid]
< 100 nM	++ (++, >100)	+++ (+++, >1000)	+++ (+++, >1000)	O=C1C[C@H](NC(=O)[C@H](CC2CCCC2)NC(=O)C2CC2)C(O)O1 (stereo partly drawn) [Example 19, (3S)-(3-Cyclopentyl-(2S)-(cyclopropylcarbonylamino)-propionylamino)-4-oxo-butyric acid]
